Laboratory results as given in patent US20120283403A1, “Phenylboronic Acid Monomer and Phenylboronic Acid Polymer” (National Institute for Materials Science, priority 2010, published 2012).

Description: Subsequently, for the sample 1, the comparative sample 1 and the comparative sample 2, the relationships between glucose concentrations and apparent changes in pKa were derived by acid-base titration under various glucose concentration conditions (0 g/L, 1 g/L, 3 g/L, 5 g/L, and 10 g/L).

C=CC(=O)NCCNC(=O)c1ccc(B(O)O)cc1F [sample 1, 4-(2-acrylamideethylcarbamoyl)-3-fulorophenylboronic acid]
apparent pKa (all glucose concentrations (0, 1, 3, 5 and 10 g/L), FIG. 2, samples a1 to a5): < 7.4
degrees of decrease in pKa according to the increase in the concentrations of glucose (compared with comparative samples 1 and 2, glucose 0 to 10 g/L): excellent
